Results taken from patent US20140128605A1, “CRYSTALS OF GLYCINE DERIVATIVE AND PHARMACEUTICAL USE THEREOF” (Toray Industries, Inc., priority 2011, published 2014).

Assays:
Format in all cases: physicochemical
[1] = Evaluation of solid-state stability (60° C., four weeks, air-tightly); settings: for Purity [%] Initial value / Purity [%] After 4 weeks: HPLC; for Purity [%] Initial value: before storage; for Purity [%] After 4 weeks / Decomposition product increased by not less than 0.15% after 4 weeks / Crystal form after 4 weeks: stored air-tightly at 60° C. for four weeks; for Crystal form after 4 weeks: powder X-ray diffraction and TG-DTA
Procedure: The amorphous form, and the crystals of Form A, Form B, Form C, Form D and Form E (hydrate) of the subject compound were stored air-tightly at 60° C. for four weeks, and the purities thereof before and after the storage were measured by high performance liquid chromatography (hereinafter referred to as “HPLC”) under the following conditions. The powder X-ray diffraction measurement and TG-DTA were carried out to evaluate whether the crystal forms were changed or not due to the storage. Aqueous sodium dihydrogen phosphate solution in a concentration of 20 mmol/L (hereinafter referred to as “aqueous SDP solution”) used to prepare a mobile phase of HPLC was prepared by adding distilled water (3 L) to weighed sodium dihydrogen phosphate dihydrate (9.36 g) and stirring the resulting solution to dissolve the dihydrate. An analytical sample of HPLC was prepared by weighing and adding each crystal (1.75 mg) of the subject compound to a 10-mL measuring flask respectively; adding acetonitrile (2 mL) thereto to dissolve the crystal; and then adding aqueous SDP solution thereto to a total volume of 10 mL.
• Detection Wavelength: 210 nm • Column: YMC-Pack Pro C18 AS-303 • Mobile Phase A: aqueous SDP solution/acetonitrile=80:20 (v/v) • Mobile Phase B: acetonitrile/aqueous SDP solution=70:30 (v/v) • Composition of Mobile Phase B: 0 to 60 minutes: 0→100% • 60 to 65 minutes: 100%, • 65 to 66 minutes: 100→0%, • 66 to 75 minutes: 0% • Flow rate: 1.0 mL/min • Column Temperature: 40° C. • Amount of Injected Sample: 20 μL

[2] = Evaluation of moisture absorption (equilibrium moisture regain); settings: for Weight increase: relative humidity increased from 5% to 95%, 25° C.
Procedure: • Sample Amount: 5 to 12 mg • Measuring Temperature: 25° C. • Equilibrium Weight/time: 0.01 wt %/5 minutes • Maximum Equilibration Time: 180 minutes • Measurement Range: 5% relative humidity-95% relative humidity-5% relative humidity • Measurement Interval: 5% relative humidity
To evaluate whether the crystal form changes or not, the powder X-ray diffraction measurement was carried out for each crystal of Form A, Form B, Form C, Form D and Form E (hydrate) obtained after the evaluation test of moisture absorption. Only for the Form A crystal, the measurement range (2θ) of the powder X-ray diffraction measurement was changed to 2 to 35°, and the measurement was carried out at 25° C., 90% relative humidity. A humidity generator (HUM-1A; manufactured by Rigaku) was used to control humidity.

[3] = Storage stability test (accelerated testing) of Form C crystal; settings: 40° C., 75% relative humidity; for Purity [%] Initial value: HPLC, before storage, 6 months column
Procedure: The Form C crystals of the subject compound were stored under acceleration conditions (40° C., 75% relative humidity) air-tightly or under open conditions for six months, and the purities of the crystals before and after the storage were measured by HPLC under conditions below. The powder X-ray diffraction measurement and TG-DTA were carried out to evaluate whether the crystal form was changed or not due to storage.
Phosphate buffer in a concentration of 20 mmol/L (pH 3.9) (hereinafter referred to as “Buffer X”) used to prepare a mobile phase of HPLC was prepared by adding 20 mmol/L of aqueous phosphoric acid solution to 20 mmol/L of aqueous potassium dihydrogen phosphate solution. 20 mmol/L of the aqueous potassium dihydrogen phosphate solution was prepared by adding the weighed potassium dihydrogen phosphate (8.2 g) to distilled water (3 L), and stirring the resulting solution to dissolve the phosphate, and 20 mmol/L of the aqueous phosphoric acid solution was prepared by adding phosphoric acid (1.4 mL) to distilled water (1 L), and mixing the resulting solution under stirring.
Phosphate buffer in a concentration of 20 mmol/L (pH 7.0) (hereinafter referred to as “Buffer Y”) used to prepare an analytical sample of HPLC was prepared by adding 20 mmol/L of aqueous phosphoric acid solution to 20 mmol/L of aqueous dipotassium hydrogen phosphate solution. 20 mmol/L of aqueous dipotassium hydrogen phosphate solution was prepared by adding the weighed dipotassium hydrogen phosphate (3.5 g) to distilled water (1 L), and stirring the resulting solution.
Further, the analytical sample of HPLC was prepared by weighing and adding the Form C crystals of the subject compound (10 mg) to a 50-mL measuring flask, and adding a mixture of Buffer Y and acetonitrile at a ratio of 80:20 to a total amount of 50 mL.
• Detection Wavelength: 210 nm • Column: YMC-Pack Pro C18 • AS12S05-2546WT • Mobile Phase A: buffer X/acetonitrile=80:20 (v/v) • Mobile Phase B: acetonitrile/buffer X=70:30 (v/v) • Composition of Mobile Phase B: 0 to 80 minutes: 0→100% • 80 to 85 minutes: 100% • 85 to 86 minutes: 100→0% • 86 to 95 minutes: 0% • Flow Rate: 1.0 mL/min • Column Temperature: 40° C. • Amount of Injected Sample: 20 μL

[4] = Physical stability of crystal form in solvents; settings: solvents (e.g., toluene, methanol, 2-propanol)
[5] = Crystal form after milling (powder X-ray diffraction, TG-DTA); settings: pin milled and jet milled products

CN(c1ccc(/C=C/C[C@H](NC(=O)c2c(Cl)cccc2Cl)C(=O)O)cc1)c1ncccn1 [Amorphous, (S,E)-2-(2,6-dichlorobenzamido)-5-[4-(methyl-pyrimidin-2-ylamino)phenyl]pent-4-enoic acid]
Purity [%] Initial value [1]: 95.8%
Purity [%] After 4 weeks [1]: 92.0%
Decomposition product increased by not less than 0.15% after 4 weeks [1]: 8 different
Crystal form after 4 weeks [1]: Amorphous

CN(c1ccc(/C=C/C[C@H](NC(=O)c2c(Cl)cccc2Cl)C(=O)O)cc1)c1ncccn1 [Form A, (S,E)-2-(2,6-dichlorobenzamido)-5-[4-(methyl-pyrimidin-2-ylamino)phenyl]pent-4-enoic acid]
Change in crystal form ([2]; powder X-ray diffraction after the moisture absorption test): changed^2)
Weight increase [2]: 3.4%
Purity [%] Initial value [1]: 97.3%
Purity [%] After 4 weeks [1]: 97.5%
Decomposition product increased by not less than 0.15% after 4 weeks [1]: nothing
Crystal form after 4 weeks [1]: Form B

CN(c1ccc(/C=C/C[C@H](NC(=O)c2c(Cl)cccc2Cl)C(=O)O)cc1)c1ncccn1 [Form B, (S,E)-2-(2,6-dichlorobenzamido)-5-[4-(methyl-pyrimidin-2-ylamino)phenyl]pent-4-enoic acid]
Weight increase [2]: 1.9%
Purity [%] Initial value [1]: 99.8%
Purity [%] After 4 weeks [1]: 99.8%
Decomposition product increased by not less than 0.15% after 4 weeks [1]: nothing
Crystal form after 4 weeks [1]: Form B

CN(c1ccc(/C=C/C[C@H](NC(=O)c2c(Cl)cccc2Cl)C(=O)O)cc1)c1ncccn1 [Form C, (S,E)-2-(2,6-dichlorobenzamido)-5-[4-(methyl-pyrimidin-2-ylamino)phenyl]pent-4-enoic acid]
Crystal form after 6 months ([3]; air-tightly): Form C
Decomposition product increased by not less than 0.15% after 6 months ([3]; air-tightly): Nothing
Purity [%] After 6 months ([3]; air-tightly): 99.5%
Crystal form after 6 months ([3]; open condition): Form C
Decomposition product increased by not less than 0.15% after 6 months ([3]; open condition): Nothing
Purity [%] After 6 months ([3]; open condition): 99.4%
Purity [%] Initial value ([3]; air-tightly): 99.5%
Purity [%] Initial value ([3]; open condition): 99.5%
Transfer of crystal form in solvents [4]: not transferred to the another form
Purity [%] Initial value [1]: 98.9%
Purity [%] After 4 weeks [1]: 98.9%
Decomposition product increased by not less than 0.15% after 4 weeks [1]: nothing
Crystal form after 4 weeks [1]: Form C
Change in the crystal form due to milling [5]: no change in the crystal form

CN(c1ccc(/C=C/C[C@H](NC(=O)c2c(Cl)cccc2Cl)C(=O)O)cc1)c1ncccn1 [Form D, (S,E)-2-(2,6-dichlorobenzamido)-5-[4-(methyl-pyrimidin-2-ylamino)phenyl]pent-4-enoic acid]
Weight increase [2]: 1.0%
Purity [%] Initial value [1]: 98.0%
Purity [%] After 4 weeks [1]: 98.0%
Decomposition product increased by not less than 0.15% after 4 weeks [1]: nothing
Crystal form after 4 weeks [1]: Mixed crystals^2)

CN(c1ccc(/C=C/C[C@H](NC(=O)c2c(Cl)cccc2Cl)C(=O)O)cc1)c1ncccn1 [Form E, (S,E)-2-(2,6-dichlorobenzamido)-5-[4-(methyl-pyrimidin-2-ylamino)phenyl]pent-4-enoic acid]
Weight increase [2]: 0.4%
Purity [%] Initial value [1]: 96.6%
Purity [%] After 4 weeks [1]: 96.9%
Decomposition product increased by not less than 0.15% after 4 weeks [1]: nothing
Crystal form after 4 weeks [1]: Form E
